Measured values from US9826732B2, “Composition for cryopreservation of cells and tissues” (Bio Verde Inc., priority 2008, dated 2017).

Legend:
Format in all cases: cell-based
L929 cells [1] = assay: Toxicity test, MTT assay, 50% cell growth inhibition; settings: 48 hours culture with polymer
Description: Toxicity test was performed on L929 cells. The cells having been suspended in a culture medium of DMEM with 10% fetal bovine serum are seeded in 96-well plates (1.0×10^3 cells/well) and cultured at 37° C. for 72 hours. Thereafter, each of ε-poly-L-lysine and the modified poly-lysines having been added with varying concentrations of succinic anhydride was added to the culture media to attain final concentrations of 0-10%.

L929 cells [2] = assay: Thawed L929 cells seeded directly without dilution or washing, cultured 24 hours; settings: thawed liquid seeded directly, no dilution nor washing, FIG. 3-1, 3-2
Description: Meanwhile, the cryopreservation liquid containing the L929 cells was frozen, thawed and directly seeded in 12-well plates and cultured at 37° C. for 24 hours. In detail, the cells were cryopreserved in the 7.5% solution of the PLL succinic anhydride 63% and thawed as in EXAMPLE 2, except that no dilution nor washing was made for the liquid or the cells, and the liquid containing the cells was directly transferred to the plates for culturing.

[3] = test system: Rat mesenchymal stem cells (RMSC); assay: Cryopreservation of rat mesenchymal stem cells, survival after thawing
[4] = test system: CD34-expressing hematopoietic cells; assay: Cryopreservation of umbilical cord blood, CD34 flow cytometry; settings: human cord blood; −80° C. for three months
Description: Umbilical cord blood was collected from human umbilical cord by a 7 mL plastic vacuum blood sampling tube (Venoject II, Terumo Corporation) loaded with 10.5 mg anticoagulant (EDTA2Na). […] Then the cord blood was quickly thawed in a water bath at 37° C., and a sample of cord blood without dilution was analyzed with respect to the expression of the surface marker, CD34, by flow cytometry. The number of hematopoietic cells expressing CD34 was measured according to the standard method described in the literature (A. Higuchi et al., J. Biomed. Mater. Res., 68A, the fixed method of 34-42 (2004)). Thus the number of CD34-expressing hematopoietic cells was estimated according to the protocol in the manual (International Hemotherapeutics and Transplantation Society ISHAGE guideline) using Stem-Kit (Beckman-Coulter Corporation). Even after the three months of cryopreservation, number of counted cells of the CD34-expressing hematopoietic cells was estimated to be about 70% of that on the first day when the cord blood was added with the PLL succinic anhydride 63% was added by 7.5%; whereas, when the cord blood in a state of 10% DMSO solution was cryopreserved, number of the CD34-expressing hematopoietic cells was estimated to be about 20% of that on the first day.

- observation of cells after 24 hours culture (L929 cells [2]): apparently round in shape and dead
SMILES: C[S+](C)[O-] [DMSO, dimethylsulfoxide]
- IC50 (50% Cell-growth-inhibition Concentration) (L929 cells [1]): 2.035 ± 0.017%
- survival rate, 6 hours later ([3]; 6 hours after thawing): 88.3 ± 1.1
- survival rate, 24 hours later ([3]; 24 hours after thawing): 92.8 ± 3.5
- survival rate, Immediately ([3]; immediately after thawing): 92.3 ± 4.3
- number of CD34-expressing hematopoietic cells relative to that on the first day [4]: about 20%
